# In US11298363B2, “Triazolobenzazepines as vasopressin V1a receptor antagonists” (RICHTER GEDEON NYRT., priority 2017, dated 2022):
# Marks after values point to notes of the source that are not given here.
# Experiments:
# [1] = target: mouse vasopressin V1a receptor (Mus musculus, UniProt Q62463); test: Mouse vasopressin V1a receptor binding assay; details: 1321N1 cell membranes; read-out: Ki (nM) on mV1a cell line
# From the text: Mouse Vasopressin V1a Receptor Binding Assay Cells and Radioligand
# The immortalized 1321N1 cell line (B9/1321N1 clone) constitutively and stably expressing Mouse vasopressin V1a receptor vasopressin (8-L-Arginine), [Phenylalanyl-3,4,5-^3H(N)] labelled compound (Perkin Elmer Life and Analytical Sciences) as radioligand were used to determine the affinity of the prepared compounds.
# Membrane-preparation: Membrane preparation of immortalized 1321N1 cells expressing the propagated mouse Vasopressin V1a receptor was made according to Jarvis's method (Jarvis et al., J Pharmacol Exp Ther […], 310:407-16). Cells were suspended in preparative buffer (50 mM Tris, 1 mM EDTA, 0.1 mM PMSF) and homogenized with glass homogenizing potter. To separate the raw membrane fraction two consecutive centrifugation procedures (40,000 g for 25 minutes at 4° C.) were executed, then the membrane was taken into the preparatory buffer during a final washing step, it was divided into aliquots which were stored at −80° C. until the time of measurement.
# The protein content of the prepared membrane was determined according to Lowry's method using standard dilution line of bovine serum albumin (BSA) (Lowry et al., J Biol Chem 1951, 193:265-75).
# To determine the final affinity value, the results of at least two independent experiments were taken into account.
# Non-specific binding values were determined in the presence of an unlabeled 1.2×10^−6 M (Arg^8)-vasopressin. Samples were incubated in a total volume of 0.33 ml for 60 minutes at 27° C. Membrane-bound and free ligands were separated by filtration through a 0.5% polyethyleneimine-impregnated UniFilter® GF/B™ After drying the filter plates, 40 μl Microscint-20 (Packard) scintillation cocktail was added to the samples. Finally, radioactivity was measured using MicroBeta^2 Microplate Counter (Perkin Elmer).
# The radioligand clamping ability of a substance is determined in at least two independent experiments. Specific radioligand binding can be defined as the difference between total and non-specific binding in the presence of a saturation amount of the unlabeled ligand or different concentrations of the substance to be tested. The results are given as a percentage of inhibition of the specific binding achieved in the presence of the substance to be tested.
# The IC50 data (i.e. the concentration of the unknown substance which displaces 50% of specific bound radioligand) is calculated from the concentration-displacement curve using the sigmoid fitting mathematical method y=(A1−A2)/(1+(x/x0)p)+A2 with Origin 7.5. software (OriginLab Corporation, Northampton, USA). During fitting, the asymptotes are not fixed. The Ki values (inhibition constant) are given with Cheng-Prusoff equation Ki=IC50/[1+(L/KD)] wherein [L] is the radioligand concentration used in the experiment and [KD] is the affinity of the radioactively labelled ligand for the given receptor. The KD is determined beforehand using the Scatchard curve.
# [2] = target: mouse V1a receptor (Mus musculus, UniProt Q62463); test: Functional V1a in vivo test: inhibition of oxytocin-induced scratching behaviour; details: mice
# mouse V1a receptor, sequence (Q62463 whole entry): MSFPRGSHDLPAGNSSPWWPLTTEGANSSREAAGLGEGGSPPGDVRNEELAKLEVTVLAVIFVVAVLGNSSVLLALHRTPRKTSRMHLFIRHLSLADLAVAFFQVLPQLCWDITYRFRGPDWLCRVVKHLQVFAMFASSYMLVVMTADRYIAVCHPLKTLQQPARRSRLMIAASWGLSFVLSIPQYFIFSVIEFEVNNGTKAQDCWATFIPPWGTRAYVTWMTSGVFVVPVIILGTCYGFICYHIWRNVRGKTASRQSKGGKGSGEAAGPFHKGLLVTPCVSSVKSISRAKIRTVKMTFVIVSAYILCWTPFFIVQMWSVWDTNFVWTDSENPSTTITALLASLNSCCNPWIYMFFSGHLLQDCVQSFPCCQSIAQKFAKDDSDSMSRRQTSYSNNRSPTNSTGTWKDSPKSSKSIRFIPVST
# Method: Functional V1a In Vivo Test
# Male mice (NMRI, ToxiCoop) weighing 18-40 g were used. Animals were kept at least 5 days after delivery, during housing and measurements they were fed and drink ad libitum. The experiments were permitted by the Local Animal Protection Committee and carried out in accordance with the European Animal Protection Directives (EU Directive 2010/63/EU).
# Animal behaviour was measured by an automated behavioral analysis system (LABORAS™). The sensors located below platforms detect the mechanical vibration generated by the movement of animal, and transform into an electrical signal (Quinn et al., J Neurosci Methods 2003, 130:83-92). After analyzing signals, the system analyzes the time spent with the following behavioral parameters: locomotion, immobility, climbing, grooming. The grooming algorithm by definition is able to measure the scratching behavioral response. During the experiment, mice were pretreated with the test substance or vehicle, and after the pretreatment period scratching-inducing compound (s.c. 0.3 mg/kg oxytocin) was administered, and then the animals were individually placed into measuring cages. […] To reduce the exploratory activity, the animals were measured after a 1-hour habituation to the cage. The behavioural parameters were compared to the parallel measured parameters of the control animals.
# The behavioural inhibitory effect of the substances was calculated with average values of parallel measured vehicle treated groups and presented as the percentage of inhibition: 0% was expressed as average value of scratching behaviour of vehicle pretreated animals (and phys. saline s.c. pretreated with vehicle), while 100% was expressed as average value of scratching of vehicle pretreated animals that received oxytocin subcutaneously. For statistical analysis one-way analysis of variance (ANOVA) with Tukey post hoc test were used.
# [3] = target: T1, human vasopressin V1a receptor (Homo sapiens, UniProt P37288); test: Human vasopressin V1a receptor binding assay; details: 1321N1 cell membranes, [3H]vasopressin; read-out: Ki (nM) on hV1a cell line
# T1 sequence (P37288 whole entry): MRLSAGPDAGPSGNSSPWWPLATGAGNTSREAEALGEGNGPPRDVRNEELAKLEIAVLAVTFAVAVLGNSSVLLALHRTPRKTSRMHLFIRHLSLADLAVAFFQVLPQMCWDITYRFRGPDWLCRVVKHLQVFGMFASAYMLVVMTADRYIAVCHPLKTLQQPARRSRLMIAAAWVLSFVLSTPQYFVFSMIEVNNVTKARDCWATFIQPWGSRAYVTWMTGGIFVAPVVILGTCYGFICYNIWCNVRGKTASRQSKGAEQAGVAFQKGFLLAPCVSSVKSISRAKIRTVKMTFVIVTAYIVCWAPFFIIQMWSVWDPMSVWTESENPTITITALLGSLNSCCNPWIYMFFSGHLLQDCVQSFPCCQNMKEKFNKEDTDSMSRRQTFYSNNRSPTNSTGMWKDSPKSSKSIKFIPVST
# How it was run: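 Radioligand competition on membranes from cells expressing human V1a receptor; incubation 60 minutes at 27° C., non-specific binding with 1.2×10^−6 M unlabeled (Arg^8)-vasopressin, filtration separation. Ki by Cheng-Prusoff using Scatchard-derived KD, from at least two independent experiments.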
# [4] = target: T1, human vasopressin V1a receptor; test: Functional assay on human vasopressin V1a receptor expressing cell line (intracellular Ca2+ fluorescence); type: cell-based; details: 1321N1 cells, (Arg8)-vasopressin at EC80; read-out: IC50 (nM) on hV1a cell line
# [5] = system: Prenatally valproate-treated rats; test: Prenatal valproate model of ASD, social memory recognition paradigm; type: in vivo, rat; details: VPA rats; for social memory recognition active novelty contact time: mean ± S.E.M.; for social memory recognition % effect: VEH/VEH = 100%, VPA/VEH = 0%
# Method: (§1) The Prenatal Valproate Model of Autism Spectrum Disorder (ASD) in Rats
# (§2) The prenatal valproate model has excellent construct and face validity, thus it is a widely accepted animal model of ASD (Christensen et al, JAMA 2013, 309:1696-1703; Roullet et al, Neurotoxicol Teratol. 2013, 36:45-56). In this model, time-mated female Wistar rats (Harlan, UK) were treated with single-dose of valproic acid (VPA, i.p. 600 mg/kg) on 12.5 days of pregnancy. After birth and separation, the examined male offsprings were kept under standard laboratory conditions until completion of the studies. Four animals were kept together in standard cages at 22-24° C. external temperature and in 12-12 hour light-dark cycle (07.30 a.m.-07.30 p.m.). Food and water were available ad libitum. After once daily treatment with the test substance for 7 days and pretreatment on the day of measurement, the behaviour of the rats was assessed in the social preference test on the 59th or 60th postnatal day. The social preference test is a largely accepted test method for determining the autistic behaviour of rodents (Nadler et al, Genes Brain Behav 2004, 3:303-314; Bambini-Junior et al, Brain Res 2011, 1408:8-16). The test consists of two paradigms, the first is the social approach avoidance test. In this paradigm the social behaviour of examined animals can be determined with a special three-chamber apparatus. In the apparatus, the contact behaviour of the conspecific and empty separated area surrounded with a perforated wall can be examined and compared. […] One day later, on the 60th postnatal day, rats were tested in the social memory and recognition paradigm. In this, the contact behaviour with a new, previously unknown conspecific can be measured compared to a familiar conspecific.
# Unexpectedly, the treatment reversed the value of VPA/VEH to the value of VEH/VEH treated animals.
# [6] = system: Prenatally valproate-treated rats; test: Prenatal valproate model of ASD, social approach avoidance paradigm; type: in vivo, rat; details: VPA rats; for social approach avoidance active contact time: mean ± S.E.M.; for social approach avoidance % effect: VEH/VEH = 100%, VPA/VEH = 0%
# Method: as §1, §2
# [7] = target: T2, V1aR (Homo sapiens, UniProt P37288); details: cited from earlier work
# Target sequence in this assay (P37288 whole entry, species assumed): as the sequence (P37288 whole entry) above
# [8] = target: T2, V1aR; details: humans, Phase 1; cited from earlier work
# Target sequence in this assay (P37288 whole entry): as above
# [9] = rats; cited from earlier work
# [10] = target: human V1a receptor (Homo sapiens, UniProt P37288); details: cited from earlier work
# human V1a receptor, sequence (P37288 whole entry): as above
# [11] = after i.p. treatment (table title: 10 mg/kg)
# mouse vasopressin V1a receptor, sequence (Q62463 whole entry): as the sequence (Q62463 whole entry) above
smiles,measurement,setting,value
"CC(C)NC1Cc2cc(Cl)ccc2-n2c(nnc2[C@H]2CC[C@H](Oc3ccccn3)CC2)C1 (stereo partly drawn) [Example 24, 8-chloro-N-(propan-2-yl)-1-[trans-4-(pyridin-2-yloxy)cyclohexyl]-5,6-dihydro-4H-[1,2,4]triazolo[4,3-a][1]benzazepine-5-amine]",Ki,[1],25 nM
same,inhibition (%) of oxytocin-induced scratching behaviour response,[2]; [11],94* %
same,Ki,[3],1 nM
same,IC50,[4],7 nM
CC(C)N[C@H]1Cc2cc(Cl)ccc2-n2c(nnc2[C@H]2CC[C@H](Oc3ccccn3)CC2)C1 [Example 25],Ki,[1],353 nM
same,inhibition (%) of oxytocin-induced scratching behaviour response,[2]; [11],42* %
same,Ki,[3],2.3 nM
same,IC50,[4],23 nM
CC(C)N[C@@H]1Cc2cc(Cl)ccc2-n2c(nnc2[C@H]2CC[C@H](Oc3ccccn3)CC2)C1 [Example 26],Ki,[1],15 nM
same,social memory recognition active novelty contact time,[5]; 1.5 mg/kg i.p.,83.7 ± 11.8 s
same,social memory recognition % effect,[5]; 1.5 mg/kg i.p.,66%
same,social memory recognition active novelty contact time,[5]; 5 mg/kg i.p.,133.5 ± 10.0 s
same,social memory recognition % effect,[5]; 5 mg/kg i.p.,115%
same,social memory recognition active novelty contact time,[5]; 15 mg/kg i.p.,141.9 ± 9.1 s
same,social memory recognition % effect,[5]; 15 mg/kg i.p.,124%
same,social approach avoidance active contact time,[6]; 1.5 mg/kg i.p.,71.2 ± 15.9 s
same,social approach avoidance % effect,[6]; 1.5 mg/kg i.p.,30%
same,social approach avoidance active contact time,[6]; 5 mg/kg i.p.,116.4 ± 22.5 s
same,social approach avoidance % effect,[6]; 5 mg/kg i.p.,75%
same,social approach avoidance active contact time,[6]; 15 mg/kg i.p.,148.7 ± 8.3 s
same,social approach avoidance % effect,[6]; 15 mg/kg i.p.,107%
same,Ki,[3],0.7 nM
same,IC50,[4],4.5 nM
"Clc1ccc2c(c1)CC1(Cc3nnc([C@H]4CC[C@H](Oc5ccccn5)CC4)n3-2)OCCO1 [Example 53, 8′-chloro-1′-[trans-4-(pyridin-2-yloxy)cyclohexyl]-4′H,6′H-spiro[1,3-dioxolane-2,5′-[1,2,4]triazolo[4,3-a][1]benzazepine]]",Ki,[1],1.1 nM
same,inhibition (%) of oxytocin-induced scratching behaviour response,[2]; 10 mg/kg p.o. pretreatment,118%
CN1Cc2cc(Cl)ccc2-n2c(nnc2C2CCN(c3ccccn3)CC2)C1 [PF-184563],V1aR antagonism,[7],efficient V1aR antagonists
CN(C)CCn1cc(C(=O)N2CCC3(CC2)OCc2ccccc23)c2ccc(Cl)cc21 [RO5028442],orientation of eye-gaze pattern,[8],positive effect
"O=C(CCCCCCC(=O)Nc1ccccc1)NO [SAHA, suberoil anilide, reference compound]",social memory recognition active novelty contact time,[5]; 5 mg/kg i.p.,155.5 ± 5.8 s
same,social memory recognition % effect,[5]; 5 mg/kg i.p.,137%
same,active time spent with seeking response towards new animal,[5]; result in words,statistically significant increase
same,social approach avoidance active contact time,[6]; 5 mg/kg i.p.,156.0 ± 6.7 s
same,social approach avoidance % effect,[6]; 5 mg/kg i.p.,115%
same,time spent with social seeking response / social behaviour,[6]; result in words,statistically significant increase
CN(Cc1cccc(C(F)(F)F)c1)C(=O)[C@@H](CC(=O)N1CCC(N2CCCCC2)CC1)N1C(=O)[C@@H](N2C(=O)OC[C@@H]2c2ccccc2)[C@H]1/C=C/c1ccccc1 [SRX-251],brain level relative to effective concentrations detected in the binding assay,[9],approximately 100 fold
same,activity on the human V1a receptor,[10],active
